The values that follow come from BindingDB's records for doi:10.1021/acs.jmedchem.0c00656 (2020).

Usually Kd stands for the free concentration of one partner at which half of the binding sites on the other are occupied at equilibrium, for simple one-to-one binding.

The target in this test is T1, Vitamin D3 receptor A (Danio rerio, UniProt Q9PTN2).
T1 sequence (Q9PTN2 whole entry): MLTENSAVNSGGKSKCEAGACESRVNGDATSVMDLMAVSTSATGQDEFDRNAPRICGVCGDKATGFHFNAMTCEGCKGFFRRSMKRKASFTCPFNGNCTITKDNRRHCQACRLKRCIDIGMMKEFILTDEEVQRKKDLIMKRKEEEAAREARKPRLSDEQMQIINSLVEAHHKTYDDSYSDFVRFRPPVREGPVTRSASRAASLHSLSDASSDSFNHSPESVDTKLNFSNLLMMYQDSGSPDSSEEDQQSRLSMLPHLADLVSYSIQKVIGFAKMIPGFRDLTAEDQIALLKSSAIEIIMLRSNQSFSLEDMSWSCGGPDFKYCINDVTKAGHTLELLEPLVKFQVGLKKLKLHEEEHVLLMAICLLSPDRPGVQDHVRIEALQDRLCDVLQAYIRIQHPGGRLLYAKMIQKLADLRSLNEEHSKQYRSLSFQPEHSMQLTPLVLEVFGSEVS
Nature of the test: Binding affinity to zebrafish VDR LBD assessed as Kd for fluorescein-labeled SRC1 NR2 peptide binding by micro-scale thermophoresis method.

In the case of `C=C1/C(=C\C=C2/CCC[C@]3(C)[C@@H]([C@H](C)/C=C/[C@@H](O)C4(/C=C/C(=O)OCC)CC4)CC[C@@H]23)C[C@@H](O)C[C@@H]1O`, the Kd was above 30 µM.
